Experiment in all cases: growth of human tumour cells (NCI), 48 h
The test system of experiment [1] is MDA-MB-435.
For experiment [2], the system named is UACC-257 melanoma.
The test system of experiment [3] is HOP-62 NSCLC.
Experiment [4] has as its system OVCAR-5 ovarian.
Experiment [5] deals with SNB-19 CNS.
The test system of experiment [6] is HT29 colon.
Experiment [7] concerns SF-539 CNS.
The test system of experiment [8] is M14 melanoma.
Experiment [9] relates to ACHN renal.
Experiment [10] concerns PC-3 prostate.

Molecules are shown by their SMILES.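 Grown in 96-well plates, cells were treated for 48 hours with each compound at five concentrations. Insufficient inhibition: endpoint recorded as highest concentration tested. GI50 marks 50% less growth. The concentration for full growth arrest is given as TGI.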 Where only a bound is given, the exact number is not on record here.

For `CNCc1cccc2c1OCCOCCOCCNS(=O)(=O)c1ccc(cc1)-c1cnc(N)c(n1)C(=O)N2`, the GI50 in experiment [1] is 1350 nM; in experiment [2] it was 1930 nM; in experiment [3] it was 1270 nM; in experiment [4], 2720 nM; in experiment [5] it was 2450 nM; in experiment [6] it was 1310 nM. Further, the results for the GI50 in [7], in experiment [8] and in experiment [9] were 1110 nM, 1310 nM and 2780 nM, respectively. Moreover, the TGI in experiment [1] came to 2.74 µM; in experiment [2], 4.68 µM; in experiment [3] it was 2.96 µM; in experiment [4], 6.37 µM; in experiment [5], 9.9 µM; in [6], 3.76 µM. The TGI came to 2380 nM in [7], 2.71 µM in [8] and 11.7 µM in experiment [9].

With `CN(C)[C@@H]1C(=O)C(C(=O)NCc2nc3[nH]cnc(=S)c3[nH]2)=C(O)[C@@]2(O)C(=O)C3=C(O)c4c(O)cccc4[C@@](C)(O)[C@H]3C[C@@H]12`, the GI50 in experiment [2] is above 100000 nM; in [3] it was 1400 nM; in experiment [4] it was above 100000 nM; in [5], above 100000 nM; in experiment [6], 8450 nM; in experiment [7], 3670 nM. For the same molecule, the figures for the GI50 in [8], in experiment [9] and in experiment [10] were 1050 nM, 16100 nM and 29.7 µM, respectively. Moreover, the TGI in experiment [2] was above 100 µM; in experiment [3], above 100 µM; in experiment [4] it was above 100 µM; in experiment [5], above 100 µM; in experiment [6], above 100 µM; in experiment [7] it was above 100000 nM. In addition, the TGI in experiment [8], in [9] and in experiment [10] was above 100 µM throughout.

Consider `O=C(NO)c1ccc(CNc2cccc3nc(C4CC4)n(-c4ccccc4)c(=O)c23)cc1`, for which the GI50 in experiment [1] is 1860 nM; in [2], 1820 nM; in [3] it was 1890 nM; in experiment [4], 2060 nM; in [5], 2610 nM; in [6], 2160 nM. Also, the results for the GI50 in experiment [7], in experiment [8] and in experiment [9] were 1710 nM, 1910 nM and 1920 nM, respectively. Moreover, the TGI in [1] was found to be 3.91 µM; in experiment [2], 4.76 µM; in experiment [3], 4.72 µM; in experiment [4], 6.1 µM; in [5], 9.68 µM; in experiment [6], 5.62 µM. Moreover, the TGI came to 3530 nM in [7], 4.14 µM in experiment [8] and 4.67 µM in [9].

For the molecule `FC(F)(F)c1cccc(CNC2CCN(CCc3ccccc3)CC2)c1`, the GI50 was 15900 nM in experiment [1]; 17200 nM in [2]; 37500 nM in experiment [3]; 27200 nM in [4]; 30800 nM in experiment [5]; 13500 nM in [6]. For the same molecule, the GI50 in experiment [7] was 15300 nM; in experiment [9], 33200 nM; in [10], 32 µM. For the same molecule, the TGI was 30.8 µM in [1]; 33.4 µM in [2]; above 100 µM in experiment [3]; above 100 µM in experiment [4]; above 100 µM in experiment [5]; 46.1 µM in experiment [6]. The TGI in [7] was 30200 nM; in [9], above 100 µM; in experiment [10] it was above 100 µM.

On to `c1cc(OCCCCCOc2cccc(-c3nc4ccccc4[nH]3)c2)cc(-c2nc3ccccc3[nH]2)c1`, for which the GI50 in experiment [1] was 2260 nM; in [2], 2870 nM; in [3] it was 3580 nM; in [4], 2760 nM; in experiment [5], 2850 nM; in experiment [6] it was 2870 nM. Further, the GI50 in experiment [7] is 5080 nM; in [8], 2570 nM; in experiment [9], 2350 nM. Further, the TGI in [1] is 6.74 µM; in experiment [2] it was 7.85 µM; in experiment [3], above 100 µM; in experiment [4], above 100 µM; in [5] it was above 100 µM; in [6], above 100 µM. In addition, the TGI was above 100000 nM in [7], above 100 µM in experiment [8] and 46.2 µM in [9].

Take `COc1ccc([C@@H]2[C@@H](Oc3ccccc3)C(=O)N2c2cc(OC)c(OC)c(OC)c2)cc1F`: the GI50 is 26.4 nM in experiment [1]; 81.1 nM in experiment [3]; 421 nM in experiment [4]; 175 nM in experiment [5]; 211 nM in [6]; 73.5 nM in experiment [7]. Also, the GI50 in experiment [8] is 81.8 nM; in experiment [9] it was 69.9 nM; in [10], 0.23 µM. Also, the TGI in experiment [1] was 0.076 µM; in experiment [3], above 100 µM; in experiment [4], above 100 µM; in [5], above 100 µM; in experiment [6] it was 0.684 µM; in experiment [7], 709 nM. In addition, the TGI in [8] was 1.72 µM; in [9] it was above 100 µM; in [10], above 100 µM.

For `COc1cc2c(Oc3ccc(-c4cnc(Nc5ccc(F)cc5)n(C)c4=O)cc3F)ccnc2cc1OCCCN1CCOCC1`, the GI50 in experiment [2] was 1100 nM; in [4], 1040 nM; in [5], 2030 nM; in [6] it was 311 nM; in experiment [7], 464 nM; in [8] it was 442 nM. Moreover, the GI50 in [9] is 864 nM; in [10], 2.05 µM. In addition, the TGI in experiment [2] came to 2.6 µM; in [4] it was 2.45 µM; in [5], 4.52 µM; in experiment [6], 1.64 µM; in experiment [7], 1620 nM; in [8] it was 1.82 µM. In addition, the values for the TGI in [9] and in experiment [10] were 2.15 µM and 6.39 µM, respectively.

As for `CCOC(=O)C#Cc1c(C(=O)OCC)nnn1[C@@H]1O[C@H](COC)[C@@H](OC)[C@H]1OC`, the GI50 was 12100 nM in experiment [1]; 3380 nM in experiment [2]; 25700 nM in experiment [3]; 16200 nM in [4]; 69400 nM in experiment [5]; 2860 nM in experiment [6]. Also, the GI50 in [8] was 3270 nM; in [9] it was 1950 nM; in experiment [10], 16.7 µM. Moreover, the TGI is 24.5 µM in [1]; 8.29 µM in experiment [2]; 63.1 µM in experiment [3]; 32.7 µM in experiment [4]; above 100 µM in experiment [5]; 6.49 µM in [6]. Further, the TGI amounted to 10.8 µM in [8], 3.9 µM in experiment [9] and 31.7 µM in experiment [10].

These data come from PubChem BioAssay (NCI).
